In patent US10851073B2, “Protein tyrosine phosphatase inhibitors and methods of use thereof” (Calico Life Sciences LLC, priority 2019, dated 2020):
Read-outs that look alike come from different tables or passages of the source.

Experiments:
[1] = molecular target: T1, His tagged PTPN2 (TC45) protein (Homo sapiens, UniProt P17706); assay: Mobility shift assay used to determine potency of PTPN2 inhibitors; assay type: biochemical; conditions: enzyme 0.5 nM, substrate 2 μM; read-out: PTPN2 MSA IC50
T1 construct: made in house
T1 sequence (P17706 with tags, fused parts or gaps isoform P17706-2): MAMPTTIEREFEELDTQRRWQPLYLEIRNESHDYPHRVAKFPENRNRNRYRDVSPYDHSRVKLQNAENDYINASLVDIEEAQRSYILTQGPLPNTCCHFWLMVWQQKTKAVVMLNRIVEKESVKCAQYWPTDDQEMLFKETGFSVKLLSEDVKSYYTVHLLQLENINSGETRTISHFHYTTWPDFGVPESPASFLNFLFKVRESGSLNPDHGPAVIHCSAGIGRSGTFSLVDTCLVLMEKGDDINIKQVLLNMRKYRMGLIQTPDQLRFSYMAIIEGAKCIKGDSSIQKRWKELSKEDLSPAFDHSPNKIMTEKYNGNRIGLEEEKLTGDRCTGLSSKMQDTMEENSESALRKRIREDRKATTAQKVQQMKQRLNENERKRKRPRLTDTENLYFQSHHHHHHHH
Summary of the method: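 Microfluidic mobility-shift read-out (488/530 nm) of dephosphorylation of an OG488-tagged phosphotyrosine insulin receptor peptide, 2 μM, over 10 min at room temperature, after 10 min compound preincubation with 0.5 nM enzyme. Buffer: 50 mM HEPES pH 7.5, EGTA, EDTA, Tween 20, DTT. IC50 derived from % inhibition over 12-point 1:3 series.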

[2] = test system: B16F10 mouse melanoma cells; assay: B16F10 IFNγ-induced cellular growth inhibition assay; assay type: cell-based; conditions: B16-F10, with 0.5 ng/mL IFNγ
Summary of the method: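 B16F10 cells grown in DMEM+10% FBS, with or without 0.5 ng/mL final mouse IFNγ, and dosed in triplicate at 100 μM to 0.001 μM final (0.1% DMSO). Confluence imaged every 6 h for 5 days; percent growth inhibition versus DMSO/with-IFNγ control taken once DMSO/no-IFNγ wells exceeded 95% confluence, giving IC50.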

[3] = test system: IFNγ-induced STAT1 phosphorylation in CD14+ monocytes; assay: Human whole blood pSTAT1 proximal pharmacodynamic (PD) assay; assay type: cell-based; conditions: Monocyte, 3 hours compound, IFNγ 20 minutes
Protocol: Example 230: Human Whole Blood pSTAT1 Proximal Pharmacodynamic (PD) Assay Human blood samples were acquired through internal AbbVie Inc's blood donation program in accordance with AbbVie's Occupational Safety and Health Administration protocols. Blood was collected by venipuncture into sodium heparin coated vacutainer tubes and kept at room temperature for no longer than 1 hour prior to the experiment initiation. Human blood samples (90 μL) were added to the individual wells of 96-well plates containing 10 μL of 10× working stock solutions of increasing concentrations of compounds to achieve final concentrations ranging from 0.025 μM to 500 μM and incubated for 3 hours at 37° C. To induce STAT1 phosphorylation the samples were then treated with recombinant human IFNγ (R&D Systems, Catalog^#285-IF, Minneapolis, Minn.; 100 nM final concentration) for 20 minutes, and 3 μL/well BV421 labeled anti-CD14 surface antibody (Biolegend, San Diego, Calif., Catalog^#301830) was added for 45 minutes before fixation and red blood cell lysis was performed with BD Phosflow Lyse/Fix buffer (BD Biosciences, San Jose, Calif., Catalog^#558049). Cells were subsequently permeabilized on ice by the addition of BD Perm III buffer (BD Biosciences, San Jose, Calif., Catalog^#558050) and stored at -80° C. until use. Before staining, the cells were washed with PBS containing 0.1% BSA. Optim/zed concentrations of BUV395 labeled anti-CD45 (BD Biosciences, San Jose, Calif., Catalog^#563792) and PE labeled anti-phospho-STAT1 ([…]; Invitrogen, Carlsbad, Calif., Catalog^#12-9008-42) antibodies were added to the cell suspensions and incubated for 2 hours. The cells were washed with PBS containing 0.1% BSA and analyzed on a BD LSRFortessaTM X20 flow cytometer (BD Biosciences, San Jose, Calif.) using BD FACSDivaTM software. The data was analyzed using FlowJo V10 analysis software (Flow Jo LLC, Ashland, Oreg.). The amount of STAT phosphorylation was measured by the mean fluorescence intensity (MFI) of pSTAT1 in CD14+monocytes. Compound dose-response curves were determined using a four-parameter logistic-nonlinear regression model from which half maximal effective concentrations (EC50) were calculated. All statistical analyses utilized GraphPad software (San Diego, Calif.).

[4] = test system: Pan T cells isolated from C57BL6 splenocytes; assay: T cell function assays (IFNγ and TNFα in supernatants); assay type: cell-based, mouse; conditions: 0.3 μM compound, 3 days
Protocol: Example 231: T Cell Function Assays Pan T cells were isolated from C57BL6 splenocytes using a MACS Pan T cell isolation kit II (Miltenyi Biotec, Auburn, Calif.) according to the manufacturer's instructions. Isolated T cells (200,000 cells/well in a 96 well flat-bottom plate) were cultured in RPMI 1640 supplemented with 10% FBS, […] 2-mercaptoethanol, 100 U/mL penicillin, and 100 μg/mL streptomycin, and incubated with 0.3 μM compound or DMSO in duplicates. After 1 hour, mouse T cell activator CD3/CD28 Dynabeads (ThermoFisher Scientific, Waltham, Mass.) were added at a 1:5 beads to cells ratio to stimulate the T cells for 3 days. T cells with or without compound were incubated in the absence of T cell activator beads to evaluate if compounds nonspecifically stimulate the T cells. After 3 days of stimulation, supernatants were collected and IFNγ and TNFα in supernatants were assessed using an MSD V-plex assay (Meso Scale Discovery, Rockville, Md.).

[5] = read-out: B16F10 Growth Inhibition IC50

`O=C1CN(c2c(O)cc3c(c2F)C[C@H](NCCCC(F)(F)F)CC3)S(=O)(=O)N1` (single isomer, unassigned) [Compound 146] was tested, and the IC50 [1] was 1 to 10 nM, the IC50 ([2]; read-out: B16F10 GI IC50) was less than 1000 nM and the IC50 [2, 5] was less than 50 nM. It also gave an EC50 [3] of 400 nM.
In the case of `O=C1CN(c2c(O)cc3c(c2F)C[C@H](NCCC2CCCC2)CC3)S(=O)(=O)N1` [Compound 200, 5-{(7R)-7-[(2-cyclopentylethyl)amino]-1-fluoro-3-hydroxy-5,6,7,8-tetrahydronaphthalen-2-yl}-1λ^6,2,5-thiadiazolidine-1,1,3-trione], the IC50 ([2]; read-out: B16F10 GI IC50) is reported as less than 1000 nM, the IC50 [2, 5] is reported as less than 50 nM and the EC50 [3] is reported as 2400 nM.
In the case of `CC(C)(O)CCOc1ccc2cc(O)c(N3CC(=O)NS3(=O)=O)c(F)c2c1` [Compound Y], the “IFNγ [pg/mL] anti-CD3/CD28” value ([4]; anti-CD3/CD28 stimulation) is reported as 67.2 pg/mL, the “TNFα [pg/mL] anti-CD3/CD28” value ([4]; anti-CD3/CD28 stimulation) is reported as 32.5 pg/mL and the “IFNγ [pg/mL] no stimulation” value ([4]; no stimulation) is reported as 1.2 pg/mL. For the same molecule, the “TNFα [pg/mL] no stimulation” value ([4]; no stimulation) was 1.0 pg/mL, the IC50 [2, 5] was 5800 nM and the EC50 [3] was 38000 nM.
`CCC1CCc2cc(O)c(N3CC(=O)NS3(=O)=O)c(F)c2C1` (stereo not drawn) [Compound Z] showed an IC50 [2, 5] of 17800 nM and an EC50 [3] greater than 500000 nM.
